Data from ChEMBL document CHEMBL4800729 (2021).

Experiments:
[1] = biological target: CDK18/Cyclin Y (Homo sapiens) (UniProt Q07002+Q8ND76); assay: CDK18/cyclinY(h) Millipore kinase panel; format: protein-complex assay; conditions: Compound concentration 1.0 uM
[2] = biological target: T1, 5-hydroxytryptamine receptor 1A (Homo sapiens) (UniProt P08908); conditions: Compound concentration 10.0 uM
T1 sequence (whole entry): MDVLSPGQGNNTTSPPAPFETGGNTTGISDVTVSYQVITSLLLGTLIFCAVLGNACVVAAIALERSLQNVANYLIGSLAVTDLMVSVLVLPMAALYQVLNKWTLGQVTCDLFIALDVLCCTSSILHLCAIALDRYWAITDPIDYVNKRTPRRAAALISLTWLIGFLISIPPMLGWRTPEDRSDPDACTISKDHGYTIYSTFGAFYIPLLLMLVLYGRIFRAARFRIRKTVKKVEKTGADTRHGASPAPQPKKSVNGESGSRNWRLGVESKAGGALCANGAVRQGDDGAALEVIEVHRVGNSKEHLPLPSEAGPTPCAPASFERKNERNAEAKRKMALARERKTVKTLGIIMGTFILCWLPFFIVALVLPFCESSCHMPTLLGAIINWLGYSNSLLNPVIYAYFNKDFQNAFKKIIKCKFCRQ

[3] = biological target: 5-hydroxytryptamine receptor 1E (Homo sapiens) (UniProt P28566); conditions: Compound concentration 10.0 uM
5-hydroxytryptamine receptor 1E (Homo sapiens), sequence (P28566 whole entry): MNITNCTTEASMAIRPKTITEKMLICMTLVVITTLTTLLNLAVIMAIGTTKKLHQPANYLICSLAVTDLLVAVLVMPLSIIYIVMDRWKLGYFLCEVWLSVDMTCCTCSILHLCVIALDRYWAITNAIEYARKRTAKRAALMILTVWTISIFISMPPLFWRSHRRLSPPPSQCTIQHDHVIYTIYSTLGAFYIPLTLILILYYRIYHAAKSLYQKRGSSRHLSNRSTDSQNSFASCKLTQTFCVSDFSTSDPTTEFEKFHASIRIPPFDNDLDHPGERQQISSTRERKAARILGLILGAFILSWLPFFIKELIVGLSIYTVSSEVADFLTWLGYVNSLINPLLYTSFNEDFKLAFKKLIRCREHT

[4] = biological target: Equilibrative nucleoside transporter 1/2/3/4 (Homo sapiens) (UniProt Q99808+Q7RTT9+Q14542+Q9BZD2); conditions: Compound concentration 10.0 uM
Equilibrative nucleoside transporter 1/2/3/4 (Homo sapiens), sequence (Q14542 whole entry, looked up): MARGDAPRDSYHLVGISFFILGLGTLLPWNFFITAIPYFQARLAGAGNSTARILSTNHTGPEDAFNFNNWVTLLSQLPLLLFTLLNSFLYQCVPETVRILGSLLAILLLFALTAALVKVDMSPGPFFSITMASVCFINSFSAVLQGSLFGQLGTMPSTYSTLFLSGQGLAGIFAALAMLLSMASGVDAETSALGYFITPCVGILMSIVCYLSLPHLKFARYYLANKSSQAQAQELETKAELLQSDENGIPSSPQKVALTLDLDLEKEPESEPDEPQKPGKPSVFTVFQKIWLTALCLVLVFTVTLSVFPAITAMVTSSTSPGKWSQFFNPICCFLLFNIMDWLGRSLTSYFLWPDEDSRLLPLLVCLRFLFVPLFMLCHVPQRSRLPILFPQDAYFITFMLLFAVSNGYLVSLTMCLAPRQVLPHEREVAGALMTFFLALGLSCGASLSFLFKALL
Equilibrative nucleoside transporter 1/2/3/4 (Homo sapiens), sequence (Q7RTT9 whole entry, looked up): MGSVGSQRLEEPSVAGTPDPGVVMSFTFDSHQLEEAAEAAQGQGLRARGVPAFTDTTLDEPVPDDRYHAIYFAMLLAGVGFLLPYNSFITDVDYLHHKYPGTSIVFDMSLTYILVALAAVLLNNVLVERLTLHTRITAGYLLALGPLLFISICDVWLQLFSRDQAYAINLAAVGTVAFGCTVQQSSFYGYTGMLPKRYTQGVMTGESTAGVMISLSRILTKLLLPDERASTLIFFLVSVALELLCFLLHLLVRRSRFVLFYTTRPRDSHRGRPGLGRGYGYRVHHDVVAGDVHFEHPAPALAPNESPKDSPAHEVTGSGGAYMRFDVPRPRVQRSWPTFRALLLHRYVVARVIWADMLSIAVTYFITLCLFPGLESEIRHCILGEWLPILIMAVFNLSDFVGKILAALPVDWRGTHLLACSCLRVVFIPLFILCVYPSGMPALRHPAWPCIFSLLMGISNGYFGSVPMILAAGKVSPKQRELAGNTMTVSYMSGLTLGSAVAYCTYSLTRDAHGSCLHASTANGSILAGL
Equilibrative nucleoside transporter 1/2/3/4 (Homo sapiens), sequence (Q99808 whole entry, looked up): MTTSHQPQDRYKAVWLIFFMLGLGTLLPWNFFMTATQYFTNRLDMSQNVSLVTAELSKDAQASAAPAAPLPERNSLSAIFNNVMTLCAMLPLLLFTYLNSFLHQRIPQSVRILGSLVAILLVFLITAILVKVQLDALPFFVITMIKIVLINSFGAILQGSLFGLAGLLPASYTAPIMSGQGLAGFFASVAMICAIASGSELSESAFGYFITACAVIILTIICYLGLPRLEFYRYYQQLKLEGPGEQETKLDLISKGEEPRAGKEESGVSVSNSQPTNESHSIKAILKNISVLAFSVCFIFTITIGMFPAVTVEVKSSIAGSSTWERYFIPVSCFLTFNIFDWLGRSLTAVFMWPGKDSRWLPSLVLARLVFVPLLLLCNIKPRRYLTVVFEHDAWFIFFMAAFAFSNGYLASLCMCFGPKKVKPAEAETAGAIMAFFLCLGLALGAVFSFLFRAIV
Equilibrative nucleoside transporter 1/2/3/4 (Homo sapiens), sequence (Q9BZD2 whole entry, looked up): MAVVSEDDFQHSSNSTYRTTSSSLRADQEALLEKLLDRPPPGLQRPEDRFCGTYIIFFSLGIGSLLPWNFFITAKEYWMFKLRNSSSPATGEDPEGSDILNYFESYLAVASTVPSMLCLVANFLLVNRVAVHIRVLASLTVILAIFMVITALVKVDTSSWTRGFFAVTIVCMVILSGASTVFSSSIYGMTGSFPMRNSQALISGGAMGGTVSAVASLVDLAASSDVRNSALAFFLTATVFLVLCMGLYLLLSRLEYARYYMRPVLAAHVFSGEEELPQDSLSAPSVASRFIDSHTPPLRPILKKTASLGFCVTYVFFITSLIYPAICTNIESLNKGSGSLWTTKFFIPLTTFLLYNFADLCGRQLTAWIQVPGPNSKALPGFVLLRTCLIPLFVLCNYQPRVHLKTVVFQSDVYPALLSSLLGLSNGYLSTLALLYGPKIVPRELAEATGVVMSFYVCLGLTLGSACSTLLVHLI

[5] = biological target: Eukaryotic elongation factor 2 kinase (Homo sapiens) (UniProt O00418); assay: eEF-2K(h) Millipore kinase panel; conditions: Compound concentration 1.0 uM
Eukaryotic elongation factor 2 kinase (Homo sapiens), sequence (O00418 whole entry): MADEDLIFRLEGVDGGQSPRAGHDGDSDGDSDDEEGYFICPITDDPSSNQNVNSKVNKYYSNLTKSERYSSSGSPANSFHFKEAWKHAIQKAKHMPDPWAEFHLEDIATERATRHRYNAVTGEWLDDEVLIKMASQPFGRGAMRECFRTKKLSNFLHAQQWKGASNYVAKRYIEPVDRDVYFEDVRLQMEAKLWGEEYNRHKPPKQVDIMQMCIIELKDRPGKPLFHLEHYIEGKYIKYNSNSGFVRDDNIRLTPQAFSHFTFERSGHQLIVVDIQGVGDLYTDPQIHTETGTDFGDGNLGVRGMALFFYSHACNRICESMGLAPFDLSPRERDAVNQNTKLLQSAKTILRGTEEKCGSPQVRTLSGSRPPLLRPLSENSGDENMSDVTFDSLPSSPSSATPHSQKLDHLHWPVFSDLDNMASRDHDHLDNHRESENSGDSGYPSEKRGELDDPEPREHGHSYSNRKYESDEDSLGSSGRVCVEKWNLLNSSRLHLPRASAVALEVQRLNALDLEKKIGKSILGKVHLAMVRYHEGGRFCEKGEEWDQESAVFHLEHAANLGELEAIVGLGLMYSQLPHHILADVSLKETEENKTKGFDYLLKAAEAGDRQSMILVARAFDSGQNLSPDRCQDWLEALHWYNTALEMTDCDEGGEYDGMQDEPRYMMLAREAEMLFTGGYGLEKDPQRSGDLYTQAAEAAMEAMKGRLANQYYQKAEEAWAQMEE

[6] = biological target: Serine/threonine-protein kinase DCLK3 (Homo sapiens) (UniProt Q9C098); assay: DCAMKL3(h) Millipore kinase panel; conditions: Compound concentration 1.0 uM
Serine/threonine-protein kinase DCLK3 (Homo sapiens), sequence (Q9C098 whole entry): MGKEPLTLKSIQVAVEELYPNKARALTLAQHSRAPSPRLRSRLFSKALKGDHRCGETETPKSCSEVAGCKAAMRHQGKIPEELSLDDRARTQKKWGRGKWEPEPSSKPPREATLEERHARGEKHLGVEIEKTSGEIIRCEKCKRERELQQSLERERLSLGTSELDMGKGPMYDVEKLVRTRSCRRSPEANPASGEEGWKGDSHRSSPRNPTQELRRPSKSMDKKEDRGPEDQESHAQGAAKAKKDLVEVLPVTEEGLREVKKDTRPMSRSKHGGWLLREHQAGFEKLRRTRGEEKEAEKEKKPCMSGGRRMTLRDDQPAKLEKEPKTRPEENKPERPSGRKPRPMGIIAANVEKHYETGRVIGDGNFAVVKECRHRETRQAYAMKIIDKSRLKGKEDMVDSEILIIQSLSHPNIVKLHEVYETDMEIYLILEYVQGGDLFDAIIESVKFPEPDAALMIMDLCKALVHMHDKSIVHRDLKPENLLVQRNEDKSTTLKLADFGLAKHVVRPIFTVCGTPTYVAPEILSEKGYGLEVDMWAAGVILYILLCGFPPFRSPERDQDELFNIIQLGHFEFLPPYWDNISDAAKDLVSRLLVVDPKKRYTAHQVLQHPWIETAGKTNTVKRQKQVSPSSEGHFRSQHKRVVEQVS

Measured: inhibition

CC[C@@H](Nc1c(C#N)c(-c2ccc(-c3cccc(C)c3F)cc2)nc2cnccc12)C(=O)O [BAY-091]
inactive: [1] 10.6% | [2] 27% | [3] 17.2% | [4] 42% | [5] 5.5% | [6] 5.32%
